Experimental data taken from publication PMC10239507, “Development of allosteric and selective CDK2 inhibitors for contraception with negative cooperativity to cyclin binding” (Nature Communications, 2023).

Assays:
Assay in all cases: biochemical
[1] = target: T1, 371 kinases (kinase named in each endpoint) (Homo sapiens, UniProt Q8TDC3); conditions: BRSK1
T1 construct: purchased Reaction Biology

[2] = target: T2, 371 kinases (kinase named in each endpoint) (Homo sapiens, UniProt P45984); conditions: JNK2
T2 construct: purchased Reaction Biology

[3] = target: T3, 371 kinases (kinase named in each endpoint) (Homo sapiens, UniProt Q16816); conditions: PHKG1
T3 construct: purchased Reaction Biology

[4] = target: T4, 371 kinases (kinase named in each endpoint) (Homo sapiens, UniProt P43403); conditions: ZAP70
T4 construct: purchased Reaction Biology

[5] = target: T5, 371 kinases (kinase named in each endpoint) (Homo sapiens, UniProt Q13043); conditions: MST1/STK4
T5 construct: purchased Reaction Biology

[6] = target: T6, 371 kinases (kinase named in each endpoint) (Homo sapiens, UniProt Q8IWQ3); conditions: BRSK2
T6 construct: purchased Reaction Biology

[7] = target: T7, 371 kinases (kinase named in each endpoint) (Homo sapiens, UniProt Q16539); conditions: P38A/MAPK14
T7 construct: purchased Reaction Biology

[8] = target: T8, 371 kinases (kinase named in each endpoint) (Homo sapiens, UniProt O15530); conditions: PDK1/PDPK1
T8 construct: purchased Reaction Biology

[9] = target: T9, 371 kinases (kinase named in each endpoint) (Homo sapiens, UniProt P07332); conditions: FES/FPS
T9 construct: purchased Reaction Biology

[10] = target: T10, 371 kinases (kinase named in each endpoint) (Homo sapiens, UniProt P31749); conditions: AKT1
T10 construct: purchased Reaction Biology

[11] = target: T11, 371 kinases (kinase named in each endpoint) (Homo sapiens, UniProt P36507); conditions: MEK2
T11 construct: purchased Reaction Biology

[12] = target: T12, 371 kinases (kinase named in each endpoint) (Homo sapiens, UniProt Q6P2M8); conditions: CAMK1B
T12 construct: purchased Reaction Biology

[13] = target: T13, 371 kinases (kinase named in each endpoint) (Homo sapiens, UniProt O75385); conditions: ULK1
T13 construct: purchased Reaction Biology

[14] = target: T14, 371 kinases (kinase named in each endpoint) (Homo sapiens, UniProt Q9H4B4); conditions: PLK3
T14 construct: purchased Reaction Biology

[15] = target: T15, 371 kinases (kinase named in each endpoint) (Homo sapiens, UniProt O75914); conditions: PAK3
T15 construct: purchased Reaction Biology

[16] = target: T16, 371 kinases (kinase named in each endpoint) (Homo sapiens, UniProt O15264); conditions: P38D/MAPK13
T16 construct: purchased Reaction Biology

[17] = target: T17, 371 kinases (kinase named in each endpoint) (Homo sapiens, UniProt Q8IY84); conditions: NIM1
T17 construct: purchased Reaction Biology

[18] = target: T18, 371 kinases (kinase named in each endpoint) (Homo sapiens, UniProt O94804); conditions: LOK/STK10
T18 construct: purchased Reaction Biology

[19] = target: T19, 371 kinases (kinase named in each endpoint) (Homo sapiens, UniProt Q04771); conditions: ALK2/ACVR1
T19 construct: purchased Reaction Biology

[20] = target: T20, 371 kinases (kinase named in each endpoint) (Homo sapiens, UniProt P10721); conditions: C-KIT
T20 construct: purchased Reaction Biology

[21] = target: T21, 371 kinases (kinase named in each endpoint) (Homo sapiens, UniProt P09619); conditions: PDGFRB
T21 construct: purchased Reaction Biology

[22] = target: T22, 371 kinases (kinase named in each endpoint) (Homo sapiens, UniProt P53350); conditions: PLK1
T22 construct: purchased Reaction Biology

[23] = target: T23, 371 kinases (kinase named in each endpoint) (Homo sapiens, UniProt P43250); conditions: GRK6
T23 construct: purchased Reaction Biology

[24] = target: T24, 371 kinases (kinase named in each endpoint) (Homo sapiens, UniProt O43781); conditions: DYRK3
T24 construct: purchased Reaction Biology

[25] = target: T25, 371 kinases (kinase named in each endpoint) (Homo sapiens, UniProt O14920); conditions: IKKb/IKBKB
T25 construct: purchased Reaction Biology

[26] = target: T26, 371 kinases (kinase named in each endpoint) (Homo sapiens, UniProt Q99683); conditions: ASK1/MAP3K5
T26 construct: purchased Reaction Biology

[27] = target: T27, 371 kinases (kinase named in each endpoint) (Homo sapiens, UniProt P25098); conditions: GRK2
T27 construct: purchased Reaction Biology

[28] = target: T28, 371 kinases (kinase named in each endpoint) (Homo sapiens, UniProt Q56UN5); conditions: YSK4/MAP3K19
T28 construct: purchased Reaction Biology

[29] = target: T29, 371 kinases (kinase named in each endpoint) (Homo sapiens, UniProt Q8N568); conditions: DCAMKL2
T29 construct: purchased Reaction Biology

[30] = target: T30, 371 kinases (kinase named in each endpoint) (Homo sapiens, UniProt Q9H1R3); conditions: MLCK2/MYLK2
T30 construct: purchased Reaction Biology

[31] = target: T31, 371 kinases (kinase named in each endpoint) (Homo sapiens, UniProt Q96KB5); conditions: PBK/TOPK
T31 construct: purchased Reaction Biology

[32] = target: T32, 371 kinases (kinase named in each endpoint) (Homo sapiens, UniProt P50750)
T32 construct: purchased Reaction Biology

[33] = target: T33, 371 kinases (kinase named in each endpoint) (Homo sapiens, UniProt P51617); conditions: IRAK1
T33 construct: purchased Reaction Biology

[34] = target: T34, 371 kinases (kinase named in each endpoint) (Homo sapiens, UniProt Q86Z02); conditions: HIPK1
T34 construct: purchased Reaction Biology

[35] = target: T35, 371 kinases (kinase named in each endpoint) (Homo sapiens, UniProt P17252); conditions: PKCA
T35 construct: purchased Reaction Biology

[36] = target: T36, 371 kinases (kinase named in each endpoint) (Homo sapiens, UniProt Q15759); conditions: P38B/MAPK11
T36 construct: purchased Reaction Biology

T32 sequence (P50750 whole entry): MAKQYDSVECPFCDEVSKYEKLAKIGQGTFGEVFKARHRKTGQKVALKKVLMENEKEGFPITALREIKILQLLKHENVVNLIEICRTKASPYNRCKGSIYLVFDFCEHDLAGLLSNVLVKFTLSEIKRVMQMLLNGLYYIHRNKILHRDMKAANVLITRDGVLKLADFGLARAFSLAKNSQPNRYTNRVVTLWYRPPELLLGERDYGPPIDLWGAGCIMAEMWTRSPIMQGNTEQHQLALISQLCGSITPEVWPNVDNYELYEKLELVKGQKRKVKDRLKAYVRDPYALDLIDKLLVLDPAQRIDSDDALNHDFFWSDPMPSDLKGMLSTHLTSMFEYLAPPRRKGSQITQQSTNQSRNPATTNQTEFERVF
T10 sequence (P31749 whole entry): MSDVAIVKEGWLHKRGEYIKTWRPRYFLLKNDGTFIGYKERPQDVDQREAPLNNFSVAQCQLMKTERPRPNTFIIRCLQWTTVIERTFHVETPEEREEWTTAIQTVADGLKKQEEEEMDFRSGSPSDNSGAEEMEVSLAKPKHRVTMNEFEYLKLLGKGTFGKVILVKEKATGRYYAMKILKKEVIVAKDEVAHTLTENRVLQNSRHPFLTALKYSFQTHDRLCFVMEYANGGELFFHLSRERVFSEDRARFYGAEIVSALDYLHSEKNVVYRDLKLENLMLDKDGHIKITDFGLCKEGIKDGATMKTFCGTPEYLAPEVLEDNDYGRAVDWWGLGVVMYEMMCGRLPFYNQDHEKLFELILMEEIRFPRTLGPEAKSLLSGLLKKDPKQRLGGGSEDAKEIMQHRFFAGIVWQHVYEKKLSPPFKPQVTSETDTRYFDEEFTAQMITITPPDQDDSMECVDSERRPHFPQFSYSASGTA
T20 sequence (P10721 26-976): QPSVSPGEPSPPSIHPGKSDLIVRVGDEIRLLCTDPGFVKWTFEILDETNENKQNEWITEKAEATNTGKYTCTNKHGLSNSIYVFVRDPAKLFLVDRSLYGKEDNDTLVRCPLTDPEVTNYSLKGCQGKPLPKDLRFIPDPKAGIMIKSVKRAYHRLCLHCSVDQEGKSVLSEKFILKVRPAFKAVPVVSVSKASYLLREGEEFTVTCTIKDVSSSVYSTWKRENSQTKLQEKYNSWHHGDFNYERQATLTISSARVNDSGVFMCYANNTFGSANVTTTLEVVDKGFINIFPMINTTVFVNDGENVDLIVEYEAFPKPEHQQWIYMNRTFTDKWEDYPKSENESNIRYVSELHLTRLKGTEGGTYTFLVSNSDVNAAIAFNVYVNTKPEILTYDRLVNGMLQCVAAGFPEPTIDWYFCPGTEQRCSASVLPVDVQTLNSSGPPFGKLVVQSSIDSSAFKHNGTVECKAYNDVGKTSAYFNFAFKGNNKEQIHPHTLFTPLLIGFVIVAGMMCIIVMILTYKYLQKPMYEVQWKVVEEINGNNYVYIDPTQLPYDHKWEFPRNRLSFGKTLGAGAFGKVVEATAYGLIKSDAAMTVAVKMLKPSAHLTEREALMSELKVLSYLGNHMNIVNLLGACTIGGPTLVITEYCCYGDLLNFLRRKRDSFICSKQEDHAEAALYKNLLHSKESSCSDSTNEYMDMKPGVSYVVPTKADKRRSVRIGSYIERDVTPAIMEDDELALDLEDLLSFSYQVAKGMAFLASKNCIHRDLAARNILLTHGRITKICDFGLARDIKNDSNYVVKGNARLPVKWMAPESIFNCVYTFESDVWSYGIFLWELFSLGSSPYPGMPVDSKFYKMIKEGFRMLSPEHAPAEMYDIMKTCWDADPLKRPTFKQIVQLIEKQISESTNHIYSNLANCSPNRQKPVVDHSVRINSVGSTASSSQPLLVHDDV
T13 sequence (O75385 whole entry): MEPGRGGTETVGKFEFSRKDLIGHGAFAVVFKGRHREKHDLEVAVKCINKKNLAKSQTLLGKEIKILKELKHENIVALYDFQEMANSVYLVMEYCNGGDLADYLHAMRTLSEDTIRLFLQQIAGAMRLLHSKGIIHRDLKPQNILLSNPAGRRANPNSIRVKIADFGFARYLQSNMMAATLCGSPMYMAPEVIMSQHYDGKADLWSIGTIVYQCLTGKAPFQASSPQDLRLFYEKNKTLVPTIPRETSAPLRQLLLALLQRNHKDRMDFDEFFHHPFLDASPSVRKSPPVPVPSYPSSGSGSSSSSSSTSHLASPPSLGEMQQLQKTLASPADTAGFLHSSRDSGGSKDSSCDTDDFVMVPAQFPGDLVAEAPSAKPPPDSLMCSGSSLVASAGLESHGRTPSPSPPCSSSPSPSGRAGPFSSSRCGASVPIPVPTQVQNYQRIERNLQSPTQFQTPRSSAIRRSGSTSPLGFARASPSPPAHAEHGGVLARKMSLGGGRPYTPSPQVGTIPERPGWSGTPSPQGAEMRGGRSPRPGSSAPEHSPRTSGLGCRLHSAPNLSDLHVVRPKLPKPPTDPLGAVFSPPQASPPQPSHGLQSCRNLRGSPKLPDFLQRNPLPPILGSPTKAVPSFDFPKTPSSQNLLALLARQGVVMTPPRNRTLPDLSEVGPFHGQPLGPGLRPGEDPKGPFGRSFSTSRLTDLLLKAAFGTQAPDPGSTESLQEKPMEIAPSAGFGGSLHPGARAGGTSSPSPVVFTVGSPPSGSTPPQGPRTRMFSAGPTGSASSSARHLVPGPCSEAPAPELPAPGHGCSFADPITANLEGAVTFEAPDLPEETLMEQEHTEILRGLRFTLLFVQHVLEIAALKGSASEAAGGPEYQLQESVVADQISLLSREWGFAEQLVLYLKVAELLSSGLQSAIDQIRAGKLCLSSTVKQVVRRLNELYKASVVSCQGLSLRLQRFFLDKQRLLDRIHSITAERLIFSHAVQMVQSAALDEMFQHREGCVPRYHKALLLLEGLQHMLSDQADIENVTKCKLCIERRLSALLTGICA
T11 sequence (P36507 whole entry): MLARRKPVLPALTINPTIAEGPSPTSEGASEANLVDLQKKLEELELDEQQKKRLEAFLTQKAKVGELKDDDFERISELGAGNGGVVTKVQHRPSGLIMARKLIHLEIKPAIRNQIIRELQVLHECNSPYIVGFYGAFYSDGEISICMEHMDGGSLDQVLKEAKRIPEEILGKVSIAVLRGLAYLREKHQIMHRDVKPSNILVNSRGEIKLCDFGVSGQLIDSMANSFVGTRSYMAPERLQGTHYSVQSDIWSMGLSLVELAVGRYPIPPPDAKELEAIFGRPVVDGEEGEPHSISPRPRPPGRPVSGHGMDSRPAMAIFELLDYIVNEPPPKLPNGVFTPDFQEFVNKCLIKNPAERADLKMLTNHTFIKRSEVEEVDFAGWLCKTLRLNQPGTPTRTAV
T26 sequence (Q99683 whole entry): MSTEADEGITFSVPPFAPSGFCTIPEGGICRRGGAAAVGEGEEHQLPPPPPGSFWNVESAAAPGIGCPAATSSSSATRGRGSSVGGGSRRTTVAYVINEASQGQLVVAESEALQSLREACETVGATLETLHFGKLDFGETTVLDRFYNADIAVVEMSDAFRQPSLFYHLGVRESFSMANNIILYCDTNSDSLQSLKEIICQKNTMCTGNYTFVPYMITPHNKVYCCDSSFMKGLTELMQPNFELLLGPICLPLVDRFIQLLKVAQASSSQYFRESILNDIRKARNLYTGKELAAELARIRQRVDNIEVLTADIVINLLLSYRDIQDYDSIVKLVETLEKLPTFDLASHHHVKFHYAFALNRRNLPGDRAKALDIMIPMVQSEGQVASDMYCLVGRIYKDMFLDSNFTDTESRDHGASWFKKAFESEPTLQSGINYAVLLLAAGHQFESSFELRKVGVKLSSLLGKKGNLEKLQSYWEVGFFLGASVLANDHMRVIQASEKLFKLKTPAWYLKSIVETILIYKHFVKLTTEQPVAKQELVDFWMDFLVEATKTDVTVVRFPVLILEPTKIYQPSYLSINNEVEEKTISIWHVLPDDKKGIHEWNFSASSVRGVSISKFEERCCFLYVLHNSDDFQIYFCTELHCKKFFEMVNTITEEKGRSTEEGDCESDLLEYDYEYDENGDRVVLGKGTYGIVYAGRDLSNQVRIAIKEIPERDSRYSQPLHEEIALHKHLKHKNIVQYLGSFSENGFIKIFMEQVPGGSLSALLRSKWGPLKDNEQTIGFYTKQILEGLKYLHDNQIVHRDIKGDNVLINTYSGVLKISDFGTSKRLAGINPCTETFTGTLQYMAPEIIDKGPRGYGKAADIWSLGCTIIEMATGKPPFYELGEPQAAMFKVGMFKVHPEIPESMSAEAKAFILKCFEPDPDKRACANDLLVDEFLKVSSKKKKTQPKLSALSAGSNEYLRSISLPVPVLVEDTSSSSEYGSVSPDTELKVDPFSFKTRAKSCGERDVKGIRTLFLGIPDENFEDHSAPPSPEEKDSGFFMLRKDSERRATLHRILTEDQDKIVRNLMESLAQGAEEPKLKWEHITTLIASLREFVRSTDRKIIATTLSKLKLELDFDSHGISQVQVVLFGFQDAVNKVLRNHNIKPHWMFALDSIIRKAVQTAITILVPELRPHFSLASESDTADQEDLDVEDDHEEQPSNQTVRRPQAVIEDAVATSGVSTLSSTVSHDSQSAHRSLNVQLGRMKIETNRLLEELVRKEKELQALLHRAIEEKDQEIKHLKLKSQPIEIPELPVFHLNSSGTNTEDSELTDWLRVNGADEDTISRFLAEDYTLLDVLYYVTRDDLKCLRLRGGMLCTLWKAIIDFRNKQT
T3 sequence (Q16816 whole entry): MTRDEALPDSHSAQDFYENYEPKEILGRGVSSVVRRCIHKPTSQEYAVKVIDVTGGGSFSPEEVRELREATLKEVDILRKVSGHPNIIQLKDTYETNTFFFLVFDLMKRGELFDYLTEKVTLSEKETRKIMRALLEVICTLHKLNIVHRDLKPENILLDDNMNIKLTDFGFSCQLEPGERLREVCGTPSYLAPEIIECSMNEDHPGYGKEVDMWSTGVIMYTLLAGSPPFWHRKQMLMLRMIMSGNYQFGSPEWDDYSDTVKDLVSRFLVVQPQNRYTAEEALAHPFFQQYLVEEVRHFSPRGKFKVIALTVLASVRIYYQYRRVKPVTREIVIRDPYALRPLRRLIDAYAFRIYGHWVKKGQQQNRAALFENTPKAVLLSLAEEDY

## O=C(O)c1cc(C(F)(F)F)ccc1NCCc1c[nH]c2cc(Br)ccc12 [Compound 5, 2-((2-(6-Bromo-1H-indol-3-yl)ethyl)amino)−5-(trifluoromethyl)benzoic Acid]
[1]
  activity at 10 µM: 77.2 ± 2.3%
[2]
  activity at 10 µM: 89.6 ± 0.4%
[3]
  activity at 10 µM: 87 ± 2.6%
[4]
  activity at 10 µM: 95.1 ± 1.6%
[5]
  activity at 10 µM: 89.6 ± 2.7%
[6]
  activity at 10 µM: 79.5 ± 0.8%
[7]
  activity at 10 µM: 124.8 ± 0.6%
[8]
  activity at 10 µM: 97 ± 1%
[9]
  activity at 10 µM: 96.5 ± 1.8%
[10]
  activity at 10 µM: 93.4 ± 0.2%
[11]
  activity at 10 µM: 110.4 ± 0.1%
[12]
  activity at 10 µM: 59.1 ± 0.7%
[13]
  activity at 10 µM: 106.8 ± 0.3%
[14]
  activity at 10 µM: 79.3 ± 3.7%
[15]
  activity at 10 µM: 84 ± 0.9%
[16]
  activity at 10 µM: 80.9 ± 2.2%
[17]
  activity at 10 µM: 88.9 ± 1%
[18]
  activity at 10 µM: 88.1 ± 0.3%
[19]
  activity at 10 µM: 74.1 ± 1.8%
[20]
  activity at 10 µM: 84.5 ± 2.5%
[21]
  activity at 10 µM: 92.5 ± 0.1%
[22]
  activity at 10 µM: 92.7 ± 1.5%
[23]
  activity at 10 µM: 112 ± 2.8%
[24]
  activity at 10 µM: 57.3 ± 2.4%
[25]
  activity at 10 µM: 82.1 ± 0.2%
[26]
  activity at 10 µM: 110 ± 2.8%
[27]
  activity at 10 µM: 96.5 ± 0.4%
[28]
  activity at 10 µM: 110.3 ± 0.7%
[29]
  activity at 10 µM: 101.3 ± 0.6%
[30]
  activity at 10 µM: 70.7 ± 0.3%
[31]
  activity at 10 µM: 156 ± 1.8%
[32]; CDK9/CYCLIN K
  activity at 10 µM: 88.6 ± 0.7%
[32]; CDK9/CYCLIN T1
  activity at 10 µM: 81.5 ± 1.5%
[32]; CDK9/CYCLIN T2
  activity at 10 µM: 84.5 ± 0.4%
[33]
  activity at 10 µM: 102 ± 2.5%
[34]
  activity at 10 µM: 64.9 ± 0.2%
[35]
  activity at 10 µM: 123 ± 5.3%
[36]
  activity at 10 µM: 140 ± 2.3%
